The values that follow come from a melting point compilation (Tetko et al.; mined from patent text by program, amines drawn as free bases though some values may be those of a salt).

By melting point is commonly meant the temperature of the solid-liquid transition.

Consider `O=C(Nc1nc(C2CC2)no1)C(c1ccccc1)c1ccccc1`, for which the melting point turned out to be 163 °C.

Consider `Cc1ccc(CNC(=O)c2ccc3n2Cc2ccccc2N(C(=O)c2ccc(-c4ccccc4C)c(C)c2)C3)cc1`, for which the melting point was in the range of 179 to 181 °C.

On to `CC(C)OC(=O)c1ncn2c1CN(C)C(=O)c1ccccc1-2`, for which the melting point was 190 to 192 °C. In the case of `CN(C)C(=O)c1cc(-c2ccccc2)c(=O)n2c1-c1ccccc1C2` it was 207 to 209 °C; in that of `CNc1nc(-c2cncc(C#Cc3cccnc3)c2)c2cc(OC)c(OC)cc2n1`, 208 to 211 °C; in that of `CNC(=O)N1N=C(c2ccc(N)cc2)c2ccc(Cl)cc2CC1C` (configuration not stated), 134 to 136 °C.

Consider `COc1ccc2c(c1)CN(C=O)N=C2Cc1c(Cl)cncc1Cl`, for which the melting point fell in the range of 165 to 167 °C. Molecule `Oc1cnc2cc(C(F)(F)F)ccc2n1` yielded a melting point of 260 °C. In the case of `COc1cc(NCCCCCCN2CCN(CCCO)CC2)c2nccc(C)c2c1` it was 100 to 102 °C; in that of `CCCCCCCCCCCCCCNC(=O)c1cnccn1`, 80 to 81 °C; in that of `COc1ccc(NS(=O)(=O)c2cccc3c(N(C)C)cccc23)nn1`, 125 to 127 °C.

The molecule `COc1ccccc1CNC(=O)c1c(-c2ccc(C)cc2)c2cccnc2c(=O)n1CCCCO` gave a melting point of 205 to 206 °C. `Cc1noc(NS(=O)(=O)c2ccc(-c3cc4ccccc4s3)s2)c1Br` returned a melting point of 164 °C. In the case of `CC(=O)N1CCc2cc(-c3ccc4c(c3)CC[C@H]3N(C)C(=O)CC[C@]43C)ccc21` it was 197 to 200 °C; in that of `CC1(C)Oc2cccnc2C2OC21` (configuration not stated), 65 to 67 °C; in that of `CC(C(=O)O)c1ccc(OCCNC(=O)C2Cc3ccccc3N2S(=O)(=O)c2ccc(-c3cccc(C(F)(F)F)c3)cc2)cc1` (configuration not stated), 92 to 96 °C. In the case of `CC12CCC(=O)C=C1CCC1C2CCC2(C)C(=CCC(=O)O)CCC12` (configuration not stated) it was 266 to 270 °C. For `O=C(OCc1ccccc1)N1CCc2c(sc3nc(CCl)c(Cl)c(-c4ccc(OCC(F)(F)F)cc4)c23)C1`, the melting point is 166 to 167 °C.

`CCCOc1ccc(-c2ccc3c(c2)C=C(C(=O)Nc2ccc(CN(C)C4CCOCC4)cc2)CCS3(=O)=O)cc1OCC` returned a melting point of 203 to 205 °C. For `CCOCCOc1nc(NC(C)=O)nc2ccc(Cl)nc12` the value was 185 °C; for `CN(C)C=C1C(=O)N(C)C(=O)N1c1cccc(C(F)(F)F)c1`, 103 to 104 °C.

Turning to `Nc1ccc2c(OCc3nc4ccccc4s3)cccc2c1`, the melting point lay in the range of 141 to 143 °C. For `CCN(C=C(C#N)C#N)c1cc(C(F)(F)F)cc(C(F)(F)F)c1` the value was 118 to 120 °C. As to `COC(=O)c1coc2cc(O)ccc12`, the melting point lay within 200 to 201 °C.

`CN1CCN(c2cc(Cl)cc3c2c(=O)n(Cc2ccc(F)cc2)c(=O)n3Cc2ccccc2)CC1` came in with a melting point of 110 to 114 °C. In the case of `CN1CCN(Cc2cccc(-c3ccc(-c4cn([C@H]5CN6CCC5CC6)nn4)s3)c2)CC1` it was 155 °C; in that of `CC1CCc2cccc3c2N1C(=O)C3=O` (configuration not stated), 241 to 243 °C. For `CCOC(=O)N=P(c1ccccc1)(c1ccccc1)c1ccccc1OC` the value was 80 to 83 °C; for `Cc1c(C=CCN)[nH]c(=O)c2c1ccc1nc(Nc3c(Cl)cccc3Cl)n(C)c12`, more than 300 °C. `Cc1cc2c(cc1C)N(C)Cc1cscc1N2` yielded a melting point of 121 to 125 °C. As to `COc1ccc2c(cc3n2CCCO3)n1`, the melting point was 92 to 93 °C. In the case of `COCCc1nc2c(N)nc3ccccc3c2n1CCCCNC(=O)c1cc2ccccc2cn1` it was 199 to 200 °C; in that of `CCOC(=O)C1=Cc2cc(Cl)cc(C)c2NC1C(F)(F)F` (configuration not stated), 154 to 155 °C. In the case of `CC(=O)C(C#N)c1ccc(F)c(F)c1` (configuration not stated) it was 147 to 152 °C; in that of `Cc1nc2ccccc2c(=O)n1-c1nnn[nH]1`, 225 to 226 °C; in that of `CCCONC(=O)c1nc(-c2ccc(Cl)c(OC)c2F)cc(N)c1Cl`, 165 to 168 °C. For `COc1ccc(C(=O)C2CCC(C)(C(=O)O)C2(C)C)cc1` (configuration not stated) the value was 165 to 166 °C. On to `Cc1ccc(Cc2cnc(NCCCNc3ncc(Br)cc3C)[nH]c2=O)cn1`, for which the melting point was 48 to 51 °C. In the case of `CCN1C=C(C(=O)OC)C(=O)CC1c1ccc(N(C)C)cc1` (configuration not stated) it was 85 to 87 °C. For `COC(=O)C(C)c1ccc2nc3ccc(Cl)cn3c(=O)c2c1` (configuration not stated) the value was 173 °C. Consider `Cc1ccc(CN2CCN(c3cc(-c4ccccc4)ccn3)CC2)cc1`, for which the melting point is 103 °C. In the case of `COc1ccc2c(c1)C(=O)CC1C2C(OC(=O)C(C)(C)C)CC2(C)C(OC(=O)C(C)(C)C)CCC12` (configuration not stated) it was 183 to 184 °C; in that of `CS(=O)(=O)c1cccc(NC(=O)c2cnn3c(C(F)(F)F)cc(-c4ccc(Cl)cc4)nc23)c1`, 305 °C; in that of `O=C(NCO)c1cncc([N+](=O)[O-])c1`, 145 to 146 °C. For `Cc1ccc2c(c1)C1(OCCCO1)C(=O)N2` the value was 128 to 130 °C; for `NS(=O)(=O)c1ccc(NC(=O)CNc2ccc(Cl)cc2)c(Cl)c1`, 185 °C; for `COC(=O)c1cc(C(C)OC)c(C(F)(F)F)cc1N` (configuration not stated), 112 to 114 °C.

Molecule `Nc1nc2c(s1)-c1c(cnn1-c1ccccc1)CC2` had a melting point of 307 to 308 °C.

The molecule `S=C1Nc2ccccc2Sc2ccccc21` had a melting point of 245 to 246 °C. For the molecule `CCCCCCCN(C[C@H]1CC[C@H](CN(CCCCCCC)C(=O)Nc2ccc(N(C)C)cc2)CC1)C(=O)Nc1ccc(N(C)C)cc1`, the melting point lay in the range of 112 to 114 °C.

Molecule `O=[N+]([O-])c1c(Cl)nc2c(c1Cl)CCCC2` had a melting point of 63 to 64 °C. For `COC(=O)c1cccc2nc(OC)n(Cc3ccc(-c4ccccc4-c4nc(=O)o[nH]4)cc3)c12` the value was 215 to 216 °C; for `ONC=Nc1ccc(N2CCSCC2)c(Cl)c1`, 137 to 138 °C; for `COC(=O)c1cc(O)cc(O)c1C`, 136 to 138 °C. As to `Brc1ccc(CN2CCN(c3ccncc3)CC2)cc1`, the melting point was in the range of 140 to 141 °C. In the case of `COC(=O)CC(=O)/C=C/c1c(-c2ccc(F)cc2OC)n(C(C)C)c(=O)c2ccccc12` it was 164 to 166 °C; in that of `CC1OC(=O)c2c(S)cccc21` (configuration not stated), 40 °C. In the case of `c1cncc(-c2nc3ncccc3[nH]2)c1` it was 133 to 135 °C; in that of `CC(Cl)(Cl)C(NC(=O)c1ccc(Cl)cc1)Nc1c(Nc2cccnc2)c(=O)c1=O` (configuration not stated), 201 to 202 °C; in that of `CCOc1c(C(=O)NC2CN3CCC2CC3)cc(Cl)c2c1CCCN2` (configuration not stated), 160 °C. In the case of `O=C1NCN(c2ccccc2)C12CCN(CCCn1c(=O)[nH]c3cc(Cl)ccc31)CC2` it was 234 °C; in that of `O=C(NC(=O)C(c1ccccc1)c1ccccc1)OCC1CC1`, 108 °C. `Cc1ccc(COC(=O)N2CCC[C@H]2C(=O)N[C@H](CO)C(C)C)cc1` had a melting point of 122 to 124 °C. The molecule `Cc1cccc(C(=O)Nc2cn(C3CCCCO3)nc2C(=O)NCC(F)(F)F)n1` (configuration not stated) showed a melting point of 184 to 185 °C.

In the case of `COc1ccc2c(c1)C(CCNC(C)=O)CCO2` (configuration not stated), the melting point was 138 °C. For `CCc1nn(CCCO)c(CC)c1Cc1cc(Cl)cc(Cl)c1` the value was 56 to 59 °C.

In turn, `CCCc1nc(C(C)(C)O)c(C(=O)OCOC(=O)OC(C)C)[nH]1` registered a melting point of 144 to 146 °C. For `CCN(C(=O)c1ccccc1C(c1ccc(O)cc1)c1ccc(O)cc1)c1cccc(C)c1` the value was 218 to 220 °C; for `CCOC(=O)c1cnc2c(c(C)nc3ccnn32)c1O`, 190 to 192 °C.

As for `CC(C)CC(C(=O)c1cccc(Cl)c1)c1ccccc1NC(C)(C)C` (configuration not stated), the melting point was 172 to 174 °C. In the case of `CCCCC(=O)N(Cc1ccc(-c2ccccc2-c2nnn[nH]2)cc1Br)[C@H](C(=O)OCc1ccccc1)C(C)C` it was 104 to 106 °C; in that of `CCCc1c(OCCCOc2ccc(C(=O)OCCCN(C)C)cc2F)ccc(C(C)=O)c1O`, 55 to 56 °C. For the molecule `CSC(=N[N+](=O)[O-])N(C)SC(Cl)(Cl)Cl`, the melting point lay in the range of 75 to 78 °C. For `O=C(O)c1cc(-c2ncc(C(F)(F)F)cc2Cl)ccc1Cl` the value was 149 to 151 °C.

`CN1CC2C3C=CC(C3)C2(c2cccc(O)c2)C1` (configuration not stated) returned a melting point of 129 to 136 °C. In the case of `CCCc1nc(N)nc(O)c1I` it was 233 to 234 °C. `CC(C)c1cc(Cl)cc(C(C)C)c1NC(=O)NS(=O)(=O)c1cccc(C(C)(C)O)c1` registered a melting point of 160 to 162 °C. For the molecule `CC12CCC(C(=O)N(CCCCN3CCN(c4ncccn4)CC3)C1=O)C2(C)C` (configuration not stated), the melting point was in the range of 92 to 94 °C. In the case of `N#Cc1ccc(N2C(=O)N(CC#CCO)C(CF)(CF)C2=O)cc1C(F)(F)F` it was 131 to 132 °C; in that of `CC#CCOc1ccc(S(=O)(=O)NC2(C(=O)NO)CCCC2)cc1`, 66 to 68 °C; in that of `O=C(O)C(Br)c1ccc(Cl)cc1` (configuration not stated), 92 to 93 °C. In the case of `COc1cc(-c2ncc(Cl)cc2F)c(F)cc1Cl` it was 120 to 122 °C. For `O=S(=O)(Nc1cccc(CCOCc2sc3ccccc3c2Cl)c1)C(F)(F)F` the value was 85 to 87 °C; for `O=C(O)C1CCN(c2ncc(NS(=O)(=O)c3ccccc3Br)c(NCc3ccccc3)n2)CC1`, 114 to 117 °C. For the molecule `NC(Cc1ccc2c(c1)CCC2)=NO`, the melting point stood at 60 °C. In the case of `CC1N=NC2=CN=C(c3ccccc3Cl)c3cc(C(=O)Cl)ccc3N21` (configuration not stated) it was 295 to 297 °C; in that of `Cn1c(CCSN2CCC3(CC2)CC(=O)c2cc(NS(C)(=O)=O)ccc2O3)cc(=O)n(C)c1=O`, 198 to 201 °C. In the case of `COc1cc(C)c(Cl)cn1`, the melting point is 32 to 33 °C.

`O=C1c2ccccc2C2(Cc3ccccc3)NCCN12` (configuration not stated) returned a melting point of 115 to 117 °C. For `CCn1nc(C(F)(F)F)c(C(=O)O)c1Cl` the value was 164 to 166 °C; for `CCCC(=CC(=O)O)CCC`, 20 °C; for `Cn1cc(C=O)c(-c2ccoc2)n1`, 77 to 78 °C.
